How the values were obtained:
Settings in all cases: 48 h
SEM cells [1] = experiment: AUC of viability dose-response curve (% viability x log10 dose units); higher = less sensitive
How it was run: (§1)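 Seeding of medium-adapted leukemia cells was at 500 or 1000 cells/well in 1536-well plates, followed by 48 h at 37°C with library compounds in DMSO at 11 threefold doses from 47 μM to 0.79 nM. CellTiter-Glo One luminescence was normalised per plate to DMSO and cell-free wells and fitted as a four-parameter log-logistic function of log10 dose. Area under the curve was integrated by trapezoidal rule, with curves exceeding full viability scaled and curves failing quality control removed.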

NOMO1 [2] = experiment: as above
How it was run: as §1

P12-Ichikawa [3] = experiment: as above
How it was run: as §1

SEM cells [4] = experiment: cell viability relative to DMSO control; higher = less cytotoxic
How it was run: (§2)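 Viability values are per-plate percentages of DMSO wells, with background from cell-free wells. Library compounds in DMSO were pin-dosed, in an 11-point threefold series from 47 μM to 0.79 nM, onto NOMO1 or SEM (500 cells/well) or P12-Ichikawa (1000 cells/well) leukemia cells in 1536-well plates (5 μl). Those cells had been adapted for at least four passages in each medium, and CellTiter-Glo One luminescence was read after 48 h at 37°C.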

NOMO1 [5] = experiment: as above
How it was run: as §2

P12-Ichikawa [6] = experiment: as above
How it was run: as §2

CC/1=C(\O)C(=O)\C=C2/C1=C/C=C3\[C@@]2(C)CC[C@@]4(C)[C@@H]5C[C@@](C)(CC[C@]5(C)CC[C@]34C)C(O)=O
AUC of viability dose-response curve
Settings	NOMO1 [2]	P12-Ichikawa [3]	SEM cells [1]
HPLM + 10% dialyzed FBS	366	386	362
RPMI 5 mM glucose + 10% FBS	360	360	355
RPMI 5 mM glucose + 10% dialyzed FBS	363	346	341

cell viability [%]
Settings	NOMO1 [5]	P12-Ichikawa [6]	SEM cells [4]
HPLM + 10% dialyzed FBS, 0.000781 µM	104	105	109
HPLM + 10% dialyzed FBS, 0.00234 µM	119	96.7	102
HPLM + 10% dialyzed FBS, 0.00702 µM	97.5	103	102
HPLM + 10% dialyzed FBS, 0.0211 µM	99.6	103	119
HPLM + 10% dialyzed FBS, 0.0632 µM	108	114	113
HPLM + 10% dialyzed FBS, 0.19 µM	115	109	109
HPLM + 10% dialyzed FBS, 0.569 µM	113	104	118
HPLM + 10% dialyzed FBS, 1.71 µM	90	98.5	97.6
HPLM + 10% dialyzed FBS, 5.12 µM	23.4	56.4	10.9
HPLM + 10% dialyzed FBS, 15.4 µM	8.21	5.75	8.14
HPLM + 10% dialyzed FBS, 46.1 µM	8.32	5.87	5.78
RPMI 5 mM glucose + 10% FBS, 0.000781 µM	92.5	97.4	126
RPMI 5 mM glucose + 10% FBS, 0.00234 µM	103	97.3	97.9
RPMI 5 mM glucose + 10% FBS, 0.00702 µM	102	104	102
RPMI 5 mM glucose + 10% FBS, 0.0211 µM	105	96.9	117
RPMI 5 mM glucose + 10% FBS, 0.0632 µM	95	102	118
RPMI 5 mM glucose + 10% FBS, 0.19 µM	90.6	97.2	111
RPMI 5 mM glucose + 10% FBS, 0.569 µM	85.6	106	110
RPMI 5 mM glucose + 10% FBS, 1.71 µM	89.7	75.9	85.7
RPMI 5 mM glucose + 10% FBS, 5.12 µM	26.2	22.5	8.55
RPMI 5 mM glucose + 10% FBS, 15.4 µM	11	5.4	7.7
RPMI 5 mM glucose + 10% FBS, 46.1 µM	6.03	4.66	6.91
RPMI 5 mM glucose + 10% dialyzed FBS, 0.000781 µM	108	96.1	97.7
RPMI 5 mM glucose + 10% dialyzed FBS, 0.00234 µM	104	94.9	91.4
RPMI 5 mM glucose + 10% dialyzed FBS, 0.00702 µM	112	98.8	103
RPMI 5 mM glucose + 10% dialyzed FBS, 0.0211 µM	99.8	101	79.8
RPMI 5 mM glucose + 10% dialyzed FBS, 0.0632 µM	109	95.6	112
RPMI 5 mM glucose + 10% dialyzed FBS, 0.19 µM	97.6	94.8	89
RPMI 5 mM glucose + 10% dialyzed FBS, 0.569 µM	110	97.9	108
RPMI 5 mM glucose + 10% dialyzed FBS, 1.71 µM	82.6	71.1	61.1
RPMI 5 mM glucose + 10% dialyzed FBS, 5.12 µM	20.6	16.6	8.59
RPMI 5 mM glucose + 10% dialyzed FBS, 15.4 µM	14.1	5.81	9.09
RPMI 5 mM glucose + 10% dialyzed FBS, 46.1 µM	5.2	4.82	6.92
